This assay has as its target Human Cot (Homo sapiens (Human), UniProt P41279). The assay can be described thus: High Throughput Cot Biochemical Assay.
[1] abbreviates: IC50 HTRF, Cot HTRF (TR-FRET) biochemical assay.
Setting [2] is: read-out: IC50 HTRF, Cot HTRF (TR-FRET) biochemical assay.
The mark [3] stands for this setting: IC50 HTRF, Cot HTRF (TR-FRET KinEASE) biochemical assay, 400 μM ATP.

IC50 data for 18 compounds are collected here from patent publication US11066414B2, “Cot modulators and methods of use thereof” (Gilead Sciences, Inc., priority 2015, dated 2021).

SMILES strings stand for the structures. Where two headings read alike, the source gives them in different places.

Chain of Human Cot (P41279 30-397): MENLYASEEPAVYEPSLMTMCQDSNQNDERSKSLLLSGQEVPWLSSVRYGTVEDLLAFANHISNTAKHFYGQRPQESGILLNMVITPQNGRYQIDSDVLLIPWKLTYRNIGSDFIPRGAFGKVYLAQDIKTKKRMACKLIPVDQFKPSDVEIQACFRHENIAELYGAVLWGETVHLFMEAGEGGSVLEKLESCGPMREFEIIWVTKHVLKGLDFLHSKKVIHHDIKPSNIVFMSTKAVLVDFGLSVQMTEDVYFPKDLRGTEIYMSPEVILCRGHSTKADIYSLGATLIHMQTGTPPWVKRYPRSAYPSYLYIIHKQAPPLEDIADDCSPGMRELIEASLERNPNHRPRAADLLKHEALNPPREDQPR

As usually defined, the IC50 is the midpoint of a concentration-inhibition curve. Compound `CC1(n2cc([C@@H](Nc3cc(Cl)c4ncc(C#N)c(NCC(C)(C)C(F)(F)F)c4c3)c3cccc4ncccc34)nn2)CC1` [Example 797, (S)-8-chloro-6-(((1-(1-methylcyclopropyl)-1H-1,2,3-triazol-4-yl)(quinolin-5-yl)methyl)amino)-4-((3,3,3-trifluoro-2,2-dimethylpropyl)amino)quinoline-3-carbonitrile] came in with a half-maximal inhibitory concentration (IC50) under setting [1] of 3 nM.
Compound `CCN1CC[C@@H](n2cc(C(Nc3cc(Cl)c4ncc(C#N)c(Nc5ccc(F)c(Cl)c5)c4c3)c3cccnc3)nn2)C1` (stereo partly drawn) [Example 402, 8-chloro-4-((3-chloro-4-fluoro-phenyl)amino)-6-(((1-((R)-1-ethylpyrrolidin-3-yl)-1H-1,2,3-triazol-4-yl)(pyridin-3-yl)methyl)-amino)quinoline-3-carbonitrile] had a concentration for half-maximal inhibition (IC50) under setting [1] of 19 nM.
For the compound `CC(C)(C)OC(=O)N1CCC(n2cc([C@@H](Nc3cc(Cl)c4ncc(C#N)c(Nc5ccc(F)c(Cl)c5)c4c3)c3cncs3)nn2)CC1` [Example 384, tert-butyl (R)-4-(4-(((8-chloro-4-((3-chloro-4-fluorophenyl)amino)-3-cyanoquinolin-6-yl)amino)(thiazol-5-yl)methyl)-1H-1,2,3-triazol-1-yl)piperidine-1-carboxylate], under setting [1], the IC50 was found to be 153 nM.
`N#Cc1cnc2c(Cl)cc(N[C@H](c3cn(C4CCNCC4)nn3)c3ccc(Cl)s3)cc2c1Nc1ccc(F)c(Cl)c1` [Example 386, (R)-8-chloro-4-((3-chloro-4-fluoro-phenyl)amino)-6-(((5-chlorothiophen-2-yl)(1-(piperidin-4-yl)-1H-1,2,3-triazol-4-yl)methyl)amino)quinoline-3-carbonitrile] registered a half-inhibitory concentration (IC50) under setting [1] of 36 nM.
With `Cn1ccc2c([C@H](Nc3cc(Cl)c4ncc(C#N)c(NCC(C)(C)C)c4c3)c3cn(C4(C(F)(F)F)CC4)nn3)cccc2c1=O` [Example 618, (S)-8-chloro-6-(((2-methyl-1-oxo-1,2-dihydroisoquinolin-5-yl)(1-(1-(trifluoromethyl)cyclopropyl)-1H-1,2,3-triazol-4-yl)methyl)amino)-4-(neopentylamino)quinoline-3-carbonitrile], under setting [1], the half-maximal inhibitory concentration (IC50) was determined as 3 nM.
Consider `N#Cc1cnc2c(Cl)cc(N[C@@H](c3ccsc3)c3cn(C4CCNCC4)nn3)cc2c1Nc1ccc(F)c(Cl)c1` [Example 393, (S)-8-chloro-4-t-((3-chloro-4-fluoro-phenyl)amino)-6-(((1-(piperidin-4-yl)-1H-1,2,3-triazol-4-yl)(thiophen-3-yl)methyl)amino)quinoline-3-carbonitrile], for which the half-inhibitory concentration (IC50) under setting [2] was determined as 5 nM.
In turn, `CC(C)(C)CNc1c(C#N)cnc2c(Cl)cc(N[C@H](c3cn(C4CC4)nn3)c3csc4c3CCN(C3COC3)C4)cc12` [Example 80, (S)-8-chloro-6-(((1-cyclopropyl-1H-1,2,3-triazol-4-yl)(6-(oxetan-3-yl)-4,5,6,7-tetrahydrothieno[2,3-c]pyridin-3-yl)methyl)amino)-4-(neopentylamino)-quinoline-3-carbonitrile] had an IC50 under setting [1] of 1 nM.
With `N#Cc1cnc2c(Cl)cc(N[C@@H](c3cscn3)c3cn(CCO)nn3)cc2c1Nc1ccc(F)c(Cl)c1` [Example 356, (S)-8-chloro-4-((3-chloro-4-fluorophenyl)amino)-6-(((1-(2-hydroxyethyl)-1H-1,2,3-triazol-4-yl)(thiazol-4-yl)methyl)amino)-quinoline-3-carbonitrile], the IC50 under setting [1] is 2 nM.
`N#Cc1cnc2c(Cl)cc(N[C@H](c3cn(C4CCNCC4)nn3)c3cccs3)cc2c1Nc1ccc(F)c(Cl)c1` [Example 388, (R)-8-chloro-4-((3-chloro-4-fluoro-phenyl)amino)-6-(((1-(piperidin-4-yl)-1H-1,2,3-triazol-4-yl)(thiophen-2-yl)methyl)amino)quinoline-3-carbonitrile] displayed a 50% inhibitory concentration (IC50) under setting [1] of 10 nM.
Regarding `Cn1cc(C(Nc2cc(Cl)c3ncc(C#N)c(Nc4ccc(F)c(Cl)c4)c3c2)c2cn(C3CCN(C(C)(C)C)CC3)nn2)nn1` (stereo not drawn) [Example 399, 6-(((1-(1-(tert-butyl)piperidin-4-yl)-1H-1,2,3-triazol-4-yl)(1-methyl-1H-l, 2,3-triazol-4-yl)methyl)amino)-8-chloro-4-((3-chloro-4-fluorophenyl)-amino)quinoline-3-carbonitrile], the IC50 under setting [2] worked out at 58 nM.
`C[C@@H](CF)n1cc([C@@H](Nc2cc(Cl)c3ncc(C#N)c(NCC(C)(C)C)c3c2)c2cccc3ncccc23)nn1` [Example 803, 8-chloro-6-(((S)-(1-((S)-1-fluoropropan-2-yl)-1H-1,2,3-triazol-4-yl)(quinolin-5-yl)methyl)amino)-4-(neopentylamino)quinoline-3-carbonitrile] had an IC50 under setting [3] of 7 nM.
`CC(C)(C)CNc1c(C#N)cnc2c(Cl)cc(N[C@H](c3cn(C4(C(F)F)CC4)nn3)c3cccc4c3CNC4)cc12` [Example 445, (S)-8-chloro-6-(((1-(1-(difluoromethyl)-cyclopropyl)-1H-1,2,3-triazol-4-yl)(isoindolin-4-yl)methyl)amino)-4-(neopentylamino)quinoline-3-carbonitrile] gave a half-inhibitory concentration (IC50) under setting [1] of 2 nM.
Still for that read-out and setting: for `CCN1CCC(n2cc(C(Nc3cc(Cl)c4ncc(C#N)c(Nc5ccc(F)c(Cl)c5)c4c3)c3cn(C)nn3)nn2)CC1` (stereo not drawn) [Example 396, 8-chloro-4-((3-chloro-4-fluoro-phenyl)amino)-6-(((1-(1-ethyl-piperidin-4-yl)-1H-1,2,3-triazol-4-yl)(1-methyl-1H-1,2,3-triazol-4-yl)methyl)amino)quinoline-3-carbonitrile] the value was 43 nM; for `Cc1nc(F)ccc1[C@H](Nc1cc(F)c2ncc(C#N)c(NCC(C)(C)C)c2c1)c1cn(C2(C(F)F)CC2)nn1` [Example 514, (S)-6-(((1-(1-(difluoromethyl)cyclopropyl)-1H-1,2,3-triazol-4-yl)(6-fluoro-2-methylpyridin-3-yl)methyl)amino)-8-fluoro-4-(neopentylamino)quinoline-3-carbonitrile], 4 nM.
`Cc1nc(F)ccc1[C@H](Nc1cc(C#N)c2ncc(C#N)c(NCC(C)(C)C)c2c1)c1cn(C23CC(C2)C3)nn1` [Example 649, (S)-6-(((1-(bicyclo[1.1.1]pentan-1-yl)-1H-1,2,3-triazol-4-yl)(6-fluoro-2-methylpyridin-3-yl)methyl)amino)-4-(neopentylamino)quinoline-3,8-dicarbonitrile]: the IC50 under setting [1] was determined as 2 nM.
`Cn1cc(C(Nc2cc(Cl)c3ncc(C#N)c(Nc4ccc(F)c(Cl)c4)c3c2)c2cn(C3CCNCC3)nn2)nn1` (stereo not drawn) [Example 397, 8-chloro-4-((3-chloro-4-fluoro-phenyl)amino)-6-(((1-methyl-1H-1,2,3-triazol-4-yl)(1-(piperidin-4-yl)-1H-1,2,3-triazol-4-yl)methyl)amino)-quinoline-3-carbonitrile] yielded an IC50 under setting [1] of 46 nM.
Turning to `Cn1ncc2c([C@H](Nc3cc(Cl)c4ncc(C#N)c(NCC(C)(C)C)c4c3)c3cn(C4CC4)nn3)cccc21` [Example 423, (S)-8-chloro-6-(((1-cyclopropyl-1H-1,2,3-triazol-4-yl)(1-methyl-1H-indazol-4-yl)methyl)amino)-4-(neopentylamino)-quinoline-3-carbonitrile], the IC50 under setting [1] came out at 3 nM.
`CC(C)(C)CNc1c(C#N)cnc2c(C#N)cc(N[C@H](c3cn(C4(C(F)(F)F)CC4)nn3)c3csc4cnccc34)cc12` [Example 855, (S)-4-(neopentylamino)-6-((thieno[2,3-c]pyridin-3-yl(1-(1-(trifluoro-methyl)cyclopropyl)-1H-1,2,3-triazol-4-yl)methyl)-amino)quinoline-3,8-dicarbonitrile]: the half-inhibitory concentration (IC50) under setting [3] was 2 nM.
